According to publication PMC11718441, “Bis-3-chloropiperidines: a novel motif for anthelmintic drug design” (RSC Advances, 2025):
Converted amounts (≈) assume the structure as drawn. “Also recorded” adds a separate entry of the source. Read-outs that look alike come from different tables or passages of the source.

Columns and labels:
[1] = system: MDCK II cells; experiment: In vitro cytotoxicity, CellTiter-Glo, MDCK II cells; conditions: 100 μM; for MDCKII cytotoxicity: 48 h, cell viability less than 80% relative to DMSO control = cytotoxic
[2] = in vitro; conditions: dog
[3] = system: Escherichia coli ATCC35218; experiment: microbe, parasite or virus in culture; assay type: cell-based; conditions: ATCC35218, read-out: MIC Ec
Experimental: (§1) The minimum inhibitory concentration (MIC) of the synthesized compounds was initially determined against three microbial indicator strains (Escherichia coli ATCC35218, […] ATCC33592, Septoria tritici MUCL45408). […]
(§2) 2. Microbial and parasitological studies
(§3) The minimum inhibitory concentration (MIC) of the synthesized compounds was determined against three microbial indicator strains (E. coli ATCC35218, S. aureus ATCC33592 and S. tritici MUCL45408) as previously described.1,2 All samples were dissolved in DMSO and tested in triplicate. Briefly, a pre-culture of E. coli and S. aureus was prepared by incubating the strains in cation adjusted Mueller Hinton 2 broth (Becton Dickinson, Sparks, NV, USA) at 37°C and 180 rpm overnight. The cell density of adjusted to 5 × 10^5 cells/mL before assays were incubated at 37 °C, 180 rpm and 85% rH. Three distinct dilution series of standard antibiotics (gentamicin, rifampicin, […]
(§4) medium without test compound or positive control was used as negative control.
(§5) Medium background was averaged from 5 replicates. The turbidity of each well was […]

[4] = system: S. aureus ATCC33592; experiment: microbe, parasite or virus in culture; assay type: cell-based; conditions: Staphylococcus aureus, ATCC33592, read-out: MIC Sa
Experimental: as §1, §2, §3, §4, §5

[5] = system: Septoria tritici MUCL45408; experiment: Minimum inhibitory concentration (MIC), S. tritici (ATP quantification); assay type: cell-based; conditions: Zymoseptoria tritici, MUCL45408, 96 h, read-out: MIC St
Experimental: as §1, §2
The minimum inhibitory concentration (MIC) of the synthesized compounds was determined against three microbial indicator strains (E. coli ATCC35218, S. aureus ATCC33592 and S. tritici MUCL45408) as previously described.1,2 All samples were dissolved in DMSO and tested in triplicate. Briefly, a pre-culture of E. coli and S. aureus was prepared by incubating the strains in cation adjusted Mueller Hinton 2 broth (Becton Dickinson, Sparks, NV, USA) at 37°C and 180 rpm overnight. The cell density of adjusted to 5 × 10^5 cells/mL before assays were incubated at 37 °C, 180 rpm and 85% rH. Three distinct dilution series of standard antibiotics (gentamicin, rifampicin, and tetracycline) were used as positive controls on each assay plate. Inoculated medium without test compound or positive control was used as negative control.
Medium background was averaged from 5 replicates. The turbidity of each well was measured with a microplate spectrophotometer at 600 nm (LUMIstar® Omega, BMG Labtech) and growth inhibition was calculated relative to the absorption of the controls. For S. tritici MUCL45408 inoculated at a density of 1 × 10^5 cells/mL in potato […]
dextrose medium. Septoria assay plates were incubated for 4 days at 25 °C, 180 rpm and 85% rH. Tebuconazole, amphotericin B, and nystatin were used as positive controls. Cell viability was evaluated via ATP quantification (BacTiter-Glo™, Promega GmbH, Walldorf, Germany) according to the manufacturer’s instructions. […]

[6] = system: C. elegans strains N2 and DC19; experiment: MMIC against C. elegans, strains N2 and DC19 reported together or strain not stated; assay type: cell-based; conditions: Caenorhabditis elegans, 48 h
From the text: (§6) The cuticle of C. elegans strain DC19 is known to be more permeable for small molecules compared to the wildtype N2.[30] DC19 is thereby considered an informative drug-sensitive test organism. In our assays, we determined the minimum mobility inhibitory concentration (MMIC) as a proxy for anthelmintic activity. […] In contrast, MMICs of some small molecule anthelmintics such as albendazole, mebendazole or PF-1022A were lower for DC19 (Fig. S1 ^†). […]
(§7) 2.2 In vitro tests against Caenorhabditis Elegans
(§8) The minimal motility inhibitory concentration (MMIC) of compounds 1-22 against C. elegans was determined as described before.3 Both strains, C. elegans N2 and DC19 were treated identically. Briefly, pre-cultures of C.elegans were kept on NGM agar plates infused with auxotrophic E.coli OP50 as food source.4 After 4 days the plates contained sufficient gravid worms, respectively. Worms were washed from the plates with M9 buffer using wide bore pipette tips. Egg preparation was carried out by treating the harvested worms with an alkaline hypochlorite solution (5 M NaOH + 5 % NaOCl 1:2) in polypropylene tubes. Larvae and adult […]
(§9) We carried out 3 washing steps (M9 buffer) to remove carry-over hypochlorite solution. Subsequently, the eggs were incubated overnight in NGM broth on a rotator to yield synchronized hatched L1/L2 larvae. The larvae solution was adjusted to 100 worms/mL and supplemented with cholesterol (5 µg/mL), carbenicillin (25 µg/mL) and E.coli OP50 (0.5%). This assay solution was distributed into 96 well plates and incubated with a dilution series of compounds 1-22 (64-0.5 µg/mL). An additional eight-point dilution series of ivermecin (40 – 0.3 ng/mL) was used as positive control on each assay plate. Solvent background was controlled by supplementation of pure DMSO without any compound. Assays were incubated for 2 days at room temperature. Finally, a cell imaging multimode reader (Cytation™ 5) was used to record short videos (1.5 seconds) of each individual test well. The videos were used to evaluate the worm motility.

[7] = system: Schistosoma mansoni; experiment: In vitro tests against Schistosoma mansoni (vitality parameters of adult worm pairs); assay type: cell-based; conditions: for lethal effects / sucker detachment: 20 μM; for lethal effects: after seven days; for sucker detachment: after three days; for Effect on S. mansoni: 10 and 20 μM, up to 7 days, Det: detachment of suckers, Mot: motility reduction, Sep: pair separation; for activity against S. mansoni (100% effect strength in one parameter within 7 days = active): 10 or 20 μM
Experimental: Subsequently, we tested whether compounds with nematocidal activity display a broader activity also against parasitic flatworms. To this end, in vitro tests against the blood fluke S. mansoni were conducted (Fig. 4). The worms were incubated in presence of 10 and 20 μM of compounds 1–22 and phenotypic vitality parameters (separation of worm pairs, detachment of suckers from the bottom of the well and weakening of body movements) were assessed as previously described.[31] Compounds reaching 100% effect strength in one of the parameters within 7 days were considered active. Reduction of motility is considered most relevant for antischistosomal drug candidates.[32] In addition, loss of sucker activity would make parasites drifting off from their host habitat (mesenteric veins) and with pair separation, the production of pathology-causing eggs eventually ceases.[33] […] For some molecular targets e.g. glutamate and GABA chloride channels (ivermecin, abamectin) and β-tubulin (albendazole, mebendazole) the C. elegans assays results were transferable to Schistosoma, while for others e.g. acetylcholin mimetic (levamisole) the C. elegans MMIC was not predicative (Fig. S1 ^†).
2.2 Parasitological studies
Animal experiments were performed in accordance with Directive 2010/63/EU on the protection of animals used for scientific purposes and the German Animal Welfare Act. The experiments were approved by the Regional Council (Regierungspraesidium) Giessen (V54 – […]
A Liberian strain of S. mansoni was maintained in the freshwater snail Biomphalaria glabrata as intermediate host and Syrian hamsters (Mesocricetus auratus) as final host (Janvier Labs, France).5,6 Hamsters were infected at 8 weeks of age with 1,750 cercariae by using the paddling method.7 Adult worms were collected at 46 days p.i. by hepatoportal perfusion and cultured in M199 medium (Sigma-Aldrich, Germany) supplemented with 10% Newborn Calf Serum (NCS, Sigma-Aldrich), 1% 1 M HEPES (ThermoFisher Scientific, USA) and 1% ABAM solution (10,000 units/ml penicillin, 10 mg/ml streptomycin and […] amphotericin B; Sigma-Aldrich, Germany) at 37 °C, 5% CO2 and humidified atmosphere.
2.2.3. In vitro tests against Schistosoma mansoni
Test compounds were added at 10 µM or 20 µM in supplemented M199 medium to schistosomes (5 worm pairs per replicate) followed by a 7 d in vitro culture. Worms receiving the solvent DMSO at equal dilution served as negative control. The following vitality parameters were assessed every 24 h by bright field microscopy using a Leica DM IL inverted microscope and x2.5 objective lens: separation of worm pairs into male and female worms; detachment of suckers from the bottom; and weakening of body movements. Worm motility was scored as described previously, 8 with the scores 3 (normal motility), 2 (reduced motility), 1 (minimal and sporadic movements), 0 (no movements within 20 sec; dead worms). An average score of all worms per well was calculated to obtain a motility score. An average motility score of 0, separation of all pairs or detachment of all worms per well was considered

[8] = system: C. elegans DC19; experiment: whole plant or invertebrate; assay type: cell-based, Caenorhabditis elegans; conditions: Caenorhabditis elegans, 48 h, read-out: MMIC DC19
From the text: as §6, §7, §8, §9

[9] = system: C. elegans N2; experiment: whole plant or invertebrate; assay type: cell-based, Caenorhabditis elegans; conditions: Caenorhabditis elegans, 48 h, read-out: MMIC N2
From the text: as §6, §7, §8, §9

[10] = C. elegans, read-out: MMIC N2 and DC19

Q: Which “cytotoxicity against MDCK II (in words)” value [1] does the source give for `COc1cc(CN2CC(Cl)CC(C)(C)C2)cc(CN2CC(Cl)CC(C)(C)C2)c1` (stereo not drawn) [Compound 2] here?
A: did not exhibit cytotoxic properties

Q: What about the MDCKII cytotoxicity [1] of the same compound?
A: − (“−” (not toxic))

Q: What about the CC50 [2] of the same compound?
A: 83 µM

Q: And the MIC [3]?
A: > 64 µg/mL

Q: And the MIC [4]?
A: > 64 µg/mL

Q: What about the MIC [5] of the same compound?
A: 64 µg/mL (≈ 150 µM)

Q: What about the minimal effective concentration [6, 10] of the same compound?
A: < 20 µg/mL

Q: And the lethal effects [7]?
A: lethal effect

Q: What about the sucker detachment [7] of the same compound?
A: sucker detachment already after three days

Q: And the “Effect on S. mansoni” value [7]?
A: Det, Sep, Mot, Lethal

Q: And the “activity against S. mansoni (100% effect strength in one parameter within 7 days = active)” value [7]?
A: showed an effect on S. mansoni; also recorded: active at 20 μM

Q: For `COC(=O)c1cc(CN2CC(Cl)CC(C)(C)C2)cc(CN2CC(Cl)CC(C)(C)C2)c1` (stereo not drawn) [Compound 4], which MDCKII cytotoxicity [1] is on record?
A: − (“−” (not toxic))

Q: What about the CC50 [2] of the same compound?
A: 205 µM

Q: What about the minimal effective concentration [8] of the same compound?
A: 16 µg/mL

Q: And the minimal effective concentration [9]?
A: 16 µg/mL

Q: And the MIC [3]?
A: > 64 µg/mL

Q: And the MIC [4]?
A: > 64 µg/mL

Q: What about the MIC [5] of the same compound?
A: > 64 µg/mL

Q: And the minimal effective concentration [6, 10]?
A: < 20 µg/mL

Q: And the “activity against S. mansoni (100% effect strength in one parameter within 7 days = active)” value [7]?
A: no activity

Q: Which results are given for `CC1(C)CC(Cl)CN(Cc2cc(CN3CC(Cl)CC(C)(C)C3)cc([N+](=O)[O-])c2)C1` (stereo not drawn) [Compound 5]?
A: MDCKII cytotoxicity [1]: − (“−” (not toxic)); CC50 [2]: > 1000 µM; minimal effective concentration [8]: 16 µg/mL; minimal effective concentration [9]: 16 µg/mL; MIC [3]: > 64 µg/mL; MIC [4]: > 64 µg/mL; MIC [5]: > 64 µg/mL; minimal effective concentration [6, 10]: < 20 µg/mL; sucker detachment of Schistosoma worm pairs ([7]; 10 μM): full sucker detachment; Effect on S. mansoni [7]: Det, Sep, Lethal; activity against S. mansoni (100% effect strength in one parameter within 7 days = active) [7]: showed an effect on S. mansoni; also recorded: active at 10 μM; motility score ([7]; score 3 normal motility to 0 dead, paragraph on 20 μM): 1–1.2

Q: Which “cytotoxicity against MDCK II (in words)” value [1] does the source give for `COc1ccc(CN2CC(Cl)CC(C)(C)C2)c(CN2CC(Cl)CC(C)(C)C2)c1` (stereo not drawn) [Compound 9] here?
A: cytotoxic

Q: And the MDCKII cytotoxicity [1]?
A: + (“+” (toxic))

Q: What about the CC50 [2] of the same compound?
A: 70 µM

Q: And the minimal effective concentration [8]?
A: 64 µg/mL

Q: And the minimal effective concentration [9]?
A: > 64 µg/mL

Q: What about the MIC [3] of the same compound?
A: > 64 µg/mL

Q: And the MIC [4]?
A: > 64 µg/mL

Q: And the MIC [5]?
A: > 64 µg/mL

Q: What about the minimal effective concentration ([6]; read-out: MMIC N2 and DC19, C. elegans) of the same compound?
A: 64 µg/mL

Q: What about the “separation of worm pairs” value ([7]; 10 μM, after 3 days) of the same compound?
A: separation of all worm pairs

Q: What about the lethal effects [7] of the same compound?
A: lethal effects

Q: What about the sucker detachment [7] of the same compound?
A: sucker detachment already after three days

Q: What about the “Effect on S. mansoni” value [7] of the same compound?
A: Det, Sep, Lethal

Q: What about the “activity against S. mansoni (100% effect strength in one parameter within 7 days = active)” value [7] of the same compound?
A: Schistosoma-specific; also recorded: active at 20 μM

Q: Which results are given for `CC1(C)CC(Cl)CN(Cc2cc(CN3CC(Cl)CC(C)(C)C3)cc(CN3CC(Cl)CC(C)(C)C3)c2)C1` (stereo not drawn) [Compound 21]?
A: cytotoxicity against MDCK II (in words) [1]: did not exhibit cytotoxic properties; MDCKII cytotoxicity [1]: − (“−” (not toxic)); CC50 [2]: > 1000 µM; MIC [3]: > 64 µg/mL; MIC [4]: > 64 µg/mL; MIC [5]: > 64 µg/mL; minimal effective concentration [6, 10]: < 20 µg/mL; activity against S. mansoni (100% effect strength in one parameter within 7 days = active) [7]: did not affect Schistosoma
